How the values were obtained:
L1210 Leukemia [1] = assay: L1210 Leukemia - Test 2; assay type: in vivo, mice
L1210 Leukemia [2] = assay: L1210 Leukemia - Test 3 (vehicle comparison); assay type: in vivo, mice; conditions: Day 1 only, vehicle Saline
B16 Melanoma [3] = assay: B16 Melanoma - Test 1 (ip tumor brei); assay type: in vivo, mice; conditions: for Av. Wt. Change, g Day 5 / Effect MST % T/C / MST Days / Survivors Day 5(60): QD 1→9, vehicle Saline
B16 Melanoma [4] = assay: B16 Melanoma - Test 2 (ip tumor brei); assay type: in vivo, mice; conditions: QD +9
L-1210 Leukemia = L-1210 Leukemia (Table IX); assay type: in vivo, mice
Experimental: The sodium and ammonium salts of the present invention were tested against transplantable mouse tumors as indicated below.

L1210 Leukemia [5] = assay: L1210 Leukemia - Test 1 (survival of tumor-bearing mice); assay type: in vivo; conditions: for Survivors Day 5(30): qd 1→9, in saline

## N.N.[Cl][Pt][Cl] [Cis-DDP, cis-diammine dichloroplatinum (II)]
L1210 Leukemia [1]; 0.4 mg/kg/inj ip, qd 1→9
  Average Weight Change,g: +1.6 g
  Effect MST % T/C: 100 % T/C
  MST Days: 7.0 days
  Survivors Day 5(30): 6/6
L1210 Leukemia [1]; 0.8 mg/kg/inj ip, qd 1→9
  Average Weight Change: -0.7 g
  Effect MST % T/C: 107 % T/C
  MST Days: 7.5 days
  Survivors Day 5(30): 6/6
L1210 Leukemia [1]; 1.6 mg/kg/inj ip, qd 1→9
  Average Weight Change: -2.2 g
  Effect MST % T/C: 157 % T/C
  MST Days: 11.0 days
  Survivors Day 5(30): 6/6
L1210 Leukemia [1]; 2 mg/kg/inj iv, d.1, 5 & 9
  Average Weight Change,g: +1.7 g
  Effect MST % T/C: 100 % T/C
  MST Days: 7.0 days
  Survivors Day 5(30): 6/6
L1210 Leukemia [1]; 2.4 mg/kg/inj ip, qd 1→9
  Average Weight Change: -3.3 g
  Effect MST % T/C: 214 % T/C
  MST Days: 15.0 days
  Survivors Day 5(30): 6/6
L1210 Leukemia [1]; 4 mg/kg/inj ip, d.1
  Average Weight Change: -0.7 g
  Effect MST % T/C: 136 % T/C
  MST Days: 9.5 days
  Survivors Day 5(30): 6/6
L1210 Leukemia [1]; 4 mg/kg/inj iv, d.1
  Average Weight Change,g: +1.8 g
  Effect MST % T/C: 100 % T/C
  MST Days: 7.0 days
  Survivors Day 5(30): 6/6
L1210 Leukemia [1]; 4 mg/kg/inj iv, d.1, 5 & 9
  Average Weight Change,g: +0.8 g
  Effect MST % T/C: 100 % T/C
  MST Days: 7.0 days
  Survivors Day 5(30): 6/6
L1210 Leukemia [1]; 6 mg/kg/inj ip, d.1
  Average Weight Change: -1.8 g
  Effect MST % T/C: 171 % T/C
  MST Days: 12.0 days
  Survivors Day 5(30): 6/6
L1210 Leukemia [1]; 6 mg/kg/inj iv, d.1
  Average Weight Change: -0.2 g
  Effect MST % T/C: 114 % T/C
  MST Days: 8.0 days
  Survivors Day 5(30): 6/6
L1210 Leukemia [1]; 6 mg/kg/inj iv, d.1, 5 & 9
  Average Weight Change: -1.1 g
  Effect MST % T/C: 164 % T/C
  MST Days: 11.5 days
  Survivors Day 5(30): 6/6
L1210 Leukemia [1]; 8 mg/kg/inj ip, d.1
  Average Weight Change: -2.8 g
  Effect MST % T/C: 186 % T/C
  MST Days: 13.0 days
  Survivors Day 5(30): 6/6
L1210 Leukemia [1]; 8 mg/kg/inj iv, d.1
  Average Weight Change: -3.7 g
  Effect MST % T/C: 129 % T/C
  MST Days: 9.0 days
  Survivors Day 5(30): 6/6
L1210 Leukemia [1]; 8 mg/kg/inj iv, d.1, 5 & 9
  Average Weight Change: -2.1 g
  Effect MST % T/C: 179 % T/C
  MST Days: 12.5 days
  Survivors Day 5(30): 6/6
L1210 Leukemia [1]; 10 mg/kg/inj ip, d.1
  Average Weight Change: -4.4 g
  Effect MST % T/C: 214 % T/C
  MST Days: 15.0 days
  Survivors Day 5(30): 6/6
L1210 Leukemia [1]; 10 mg/kg/inj iv, d.1
  Average Weight Change: -3.9 g
  Effect MST % T/C: 143 % T/C
  MST Days: 10.0 days
  Survivors Day 5(30): 6/6
L1210 Leukemia [1]; iv, multi-dose regimen
  maximum T/C: 179%
L1210 Leukemia [1]; multi-dose therapy ip (qd 1→9)
  maximum T/C: 207-214%
L1210 Leukemia [1]; single ip doses, ip L1210
  maximum T/C: 214%
L1210 Leukemia [2]; 4 mg/kg ip
  Average Weight Change: −1.7
  Effect MST % T/C: 143 % T/C
  MST Days: 10.0 days
  Survivors Day 5: 6/6
L1210 Leukemia [2]; 6 mg/kg ip
  Average Weight Change: −2.3
  Effect MST % T/C: 143 % T/C
  MST Days: 10.0 days
  Survivors Day 5: 6/6
L1210 Leukemia [2]; 8 mg/kg ip
  Average Weight Change: −1.8
  Effect MST % T/C: 150 % T/C
  MST Days: 10.5 days
  Survivors Day 5: 6/6
L1210 Leukemia [2]; 10 mg/kg ip
  Average Weight Change: −4.5
  Effect MST % T/C: 150 % T/C
  MST Days: 10.5 days
  Survivors Day 5: 6/6
B16 Melanoma [3]; 0.8 mg/kg/day ip
  Av. Wt. Change, g Day 5: -1.0 g
  Effect MST % T/C: 174 % T/C
  MST Days: 34.0 days
  Survivors Day 5(60): 10/10
B16 Melanoma [3]; 1.6 mg/kg/day ip
  Av. Wt. Change, g Day 5: -4.3 g
  Effect MST % T/C: 36 % T/C
  MST Days: 7.0 days
  Survivors Day 5(60): 9/9
B16 Melanoma [3]; 2.0 mg/kg/day ip
  Av. Wt. Change, g Day 5: -4.5 g
  Effect MST % T/C: 36 % T/C
  MST Days: 7.0 days
  Survivors Day 5(60): 8/10
B16 Melanoma [3]; ip B16, at the dose of maximum T/C
  mice cured: no cures
B16 Melanoma [3]; ip B16, ip QD 1→9
  maximum T/C: 174%
B16 Melanoma [4]; 0.4 mg/kg/day ip
  Average Weight Change: -2.0 g
  Effect MST % T/C: 121 % T/C
  MST Days: 25.0 days
  Survivors Day 10 (60): 8/10
B16 Melanoma [4]; 0.8 mg/kg/day ip
  Average Weight Change: -1.5 g
  Effect MST % T/C: 139 % T/C
  MST Days: 38.5 days
  Survivors Day 10 (60): 10/10
B16 Melanoma [4]; 1.6 mg/kg/day ip
  Average Weight Change: -2.7 g
  Effect MST % T/C: 173 % T/C
  MST Days: 35.5 days
  Survivors Day 10 (60): 10/10
L-1210 Leukemia; 0.4 mg/kg/inj ip, qd 1→9
  Average Weight Change,g: -0.6 g
  Effect MST % T/C: 108 % T/C
  MST Days: 7.0 days
  Survivors Day 5(45): 6/6
L-1210 Leukemia; 0.8 mg/kg/inj ip, qd 1→9
  Average Weight Change,g: -2.1 g
  Effect MST % T/C: 138 % T/C
  MST Days: 9.0 days
  Survivors Day 5(45): 6/6
L-1210 Leukemia; 1.6 mg/kg/inj ip, qd 1→9
  Average Weight Change,g: -2.9 g
  Effect MST % T/C: 154 % T/C
  MST Days: 10.0 days
  Survivors Day 5(45): 6/6
L-1210 Leukemia; 2 mg/kg/inj ip, Day 1
  Average Weight Change,g: -0.7 g
  Effect MST % T/C: 138 % T/C
  MST Days: 9.0 days
  Survivors Day 5(45): 6/6
L-1210 Leukemia; 2.4 mg/kg/inj ip, qd 1→9
  Average Weight Change,g: -3.8 g
  Effect MST % T/C: 177 % T/C
  MST Days: 11.5 days
  Survivors Day 5(45): 6/6
L-1210 Leukemia; 4 mg/kg/inj ip, Day 1
  Average Weight Change,g: -2.1 g
  Effect MST % T/C: 123 % T/C
  MST Days: 8.0 days
  Survivors Day 5(45): 6/6
L-1210 Leukemia; 6 mg/kg/inj ip, Day 1
  Average Weight Change,g: -3.7 g
  Effect MST % T/C: 154 % T/C
  MST Days: 10.0 days
  Survivors Day 5(45): 6/6
L-1210 Leukemia; 8 mg/kg/inj ip, Day 1
  Average Weight Change,g: -3.4 g
  Effect MST % T/C: 185 % T/C
  MST Days: 12.0 days
  Survivors Day 5(45): 6/6
L-1210 Leukemia; qd 1→9 (cis-DDP 2.4, parent 8 and 12, sodium salt 12 mg/kg/injection)
  maximum T/C: 177%
L-1210 Leukemia; single ip injection at maximum tolerated dose (cis-DDP 8 mg/kg, the two others 36 mg/kg)
  maximum T/C: 185%
L1210 Leukemia [5]; 0.5 mg/kg/day ip
  Survivors Day 5(30): 6/6
L1210 Leukemia [5]; 2 mg/kg/day ip
  Survivors Day 5(30): 6/6
L1210 Leukemia [5]; 6 mg/kg/day ip, d. 1 only, in saline
  Average Weight Change: −2.8
L1210 Leukemia [5]; 8 mg/kg/day ip, d. 1 only, in saline
  Average Weight Change: −4.1
L1210 Leukemia [5]; 10 mg/kg/day ip, d. 1 only, in saline
  Effect MST % T/C: 207 % T/C
